According to PubChem BioAssay AID2060494 (Molecular Pharmacology Branch, DTP, NCI, 2025):
pIC50: −log10 of the molar value.

Test system: 435261-313-R-J1-PDC complex spheroid viability
Test: Anticancer human tumor 435261-313-R-J1-PDC patient-derived colon adenocarcinoma cell line growth inhibition [GQUAD]
Settings: for pIC50: curve of first compound; for viability, T/C: stronger effect = lower value; active = viability on the fitted dose curve at most 10% of control; inactive = the rest
Outline: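 Tumor cells were grown as complex spheroids with HUVEC endothelial cells and mesenchymal stem cells as stroma. G-quadruplex stabilizers were combined with targeted agents over half-log dilutions from near the clinical Cmax, or from 10 microM.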

[1] = second compound 0.0316 µM, first compound 0.0316 µM
[2] = second compound 0.0316 µM, first compound 0.316 µM
[3] = second compound 0.1 µM, first compound 0.0316 µM
[4] = second compound 0.1 µM, first compound 0.316 µM
[5] = second compound 0.316 µM, first compound 0.0316 µM
[6] = second compound 0.316 µM, first compound 0.316 µM
[7] = second compound 1 µM, first compound 0.0316 µM
[8] = second compound 1 µM, first compound 0.316 µM
[9] = second compound 3.16 µM, first compound 0.0316 µM
[10] = second compound 3.16 µM, first compound 0.316 µM
[11] = second compound 10 µM, first compound 0.0316 µM
[12] = second compound 10 µM, first compound 0.316 µM
[13] = second compound 0.0316 µM, first compound 0.1 µM
[14] = second compound 0.0316 µM, first compound 1 µM
[15] = second compound 0.0316 µM, first compound 3.16 µM
[16] = second compound 0.0316 µM, first compound 10 µM
[17] = second compound 0.1 µM, first compound 0.1 µM
[18] = second compound 0.1 µM, first compound 1 µM
[19] = second compound 0.1 µM, first compound 3.16 µM
[20] = second compound 0.1 µM, first compound 10 µM
[21] = second compound 0.316 µM, first compound 0.1 µM
[22] = second compound 0.316 µM, first compound 1 µM
[23] = second compound 0.316 µM, first compound 3.16 µM
[24] = second compound 0.316 µM, first compound 10 µM
[25] = second compound 1 µM, first compound 0.1 µM
[26] = second compound 1 µM, first compound 1 µM
[27] = second compound 1 µM, first compound 3.16 µM
[28] = second compound 1 µM, first compound 10 µM
[29] = second compound 3.16 µM, first compound 0.1 µM
[30] = second compound 3.16 µM, first compound 1 µM
[31] = second compound 3.16 µM, first compound 3.16 µM
[32] = second compound 3.16 µM, first compound 10 µM
[33] = second compound 10 µM, first compound 0.1 µM
[34] = second compound 10 µM, first compound 1 µM
[35] = second compound 10 µM, first compound 3.16 µM
[36] = second compound 10 µM, first compound 10 µM
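Note: spheroids exposed to the agents for seven days before readout.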
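Throughout, for viability, T/C: percent of vehicle control viability with DMSO wells as 100%.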

CCc1c2c(nc3ccc(O)cc13)-c1cc3c(c(=O)n1C2)COC(=O)[C@]3(O)CC + CN(C)c1ccc(Nc2c3ccc(NC(=O)CCN4CCCC4)cc3nc3cc(NC(=O)CCN4CCCC4)ccc23)cc1
inactive: viability, T/C (second compound 0.0316 µM, first compound 0.000999 µM) 111% | viability, T/C (second compound 0.0316 µM, first compound 0.00316 µM) 103% | viability, T/C (second compound 0.0316 µM, first compound 0.00999 µM) 73.4% | viability, T/C [1] 69.2% | viability, T/C (second compound 0.0316 µM, first compound 0.0999 µM) 65.1% | viability, T/C [2] 48.6% | viability, T/C (second compound 0.1 µM, first compound 0.000999 µM) 86.2% | viability, T/C (second compound 0.1 µM, first compound 0.00316 µM) 91.2% | viability, T/C (second compound 0.1 µM, first compound 0.00999 µM) 72.3% | viability, T/C [3] 74.5% | viability, T/C (second compound 0.1 µM, first compound 0.0999 µM) 72.4% | viability, T/C [4] 42.3% | viability, T/C (second compound 0.316 µM, first compound 0.000999 µM) 76.4% | viability, T/C (second compound 0.316 µM, first compound 0.00316 µM) 77.1% | viability, T/C (second compound 0.316 µM, first compound 0.00999 µM) 66.7% | viability, T/C [5] 78.8% | viability, T/C (second compound 0.316 µM, first compound 0.0999 µM) 48.9% | viability, T/C [6] 45.1% | viability, T/C (second compound 1 µM, first compound 0.000999 µM) 62.2% | viability, T/C (second compound 1 µM, first compound 0.00316 µM) 81.2% | viability, T/C (second compound 1 µM, first compound 0.00999 µM) 65.2% | viability, T/C [7] 70.9% | viability, T/C (second compound 1 µM, first compound 0.0999 µM) 50.4% | viability, T/C [8] 39.3% | viability, T/C (second compound 3.16 µM, first compound 0.000999 µM) 50.2% | viability, T/C (second compound 3.16 µM, first compound 0.00316 µM) 57% | viability, T/C (second compound 3.16 µM, first compound 0.00999 µM) 56.8% | viability, T/C [9] 56.2% | viability, T/C (second compound 3.16 µM, first compound 0.0999 µM) 37.1% | viability, T/C [10] 22.2% | viability, T/C (second compound 10 µM, first compound 0.000999 µM) 34.9% | viability, T/C (second compound 10 µM, first compound 0.00316 µM) 30.8% | viability, T/C (second compound 10 µM, first compound 0.00999 µM) 29.8% | viability, T/C [11] 27.1% | viability, T/C (second compound 10 µM, first compound 0.0999 µM) 18.6% | viability, T/C [12] 13.6%
< 6.50: pIC50 (second compound 0.0316 µM)
6.62: pIC50 (second compound 0.1 µM)
7.36: pIC50 (second compound 3.16 µM)
> 9.00: pIC50 (second compound 10 µM)
7.02: pIC50 (second compound 0.316 µM)
6.98: pIC50 (second compound 1 µM)

CC1COCCN1c1cc(-c2ccnn2C)c2ccnc(-c3ccn[nH]3)c2n1 (stereo unspecified) + CN(C)c1ccc(Nc2c3ccc(NC(=O)CCN4CCCC4)cc3nc3cc(NC(=O)CCN4CCCC4)ccc23)cc1
6.84: pIC50 (second compound 3.16 µM)
inactive: viability, T/C [1] 87% | viability, T/C [13] 76% | viability, T/C [2] 76.2% | viability, T/C [14] 43.6% | viability, T/C [15] 28.8% | viability, T/C [16] 25.2% | viability, T/C [3] 88.4% | viability, T/C [17] 85.9% | viability, T/C [4] 55.9% | viability, T/C [18] 38.5% | viability, T/C [19] 38.8% | viability, T/C [20] 23.1% | viability, T/C [5] 71.8% | viability, T/C [21] 80.7% | viability, T/C [6] 60.4% | viability, T/C [22] 44.5% | viability, T/C [23] 32.8% | viability, T/C [24] 22.9% | viability, T/C [7] 64.6% | viability, T/C [25] 69.5% | viability, T/C [8] 61.8% | viability, T/C [26] 48.2% | viability, T/C [27] 35% | viability, T/C [28] 17.2% | viability, T/C [9] 89% | viability, T/C [29] 48.3% | viability, T/C [10] 41.5% | viability, T/C [30] 24.5% | viability, T/C [31] 16.4% | viability, T/C [11] 27.1% | viability, T/C [33] 22.1% | viability, T/C [12] 21.6% | viability, T/C [34] 14.1%
6.30: pIC50 (second compound 0.1 µM)
6.14: pIC50 (second compound 0.316 µM)
active: viability, T/C [32] 4.38% | viability, T/C [35] 6.17% | viability, T/C [36] 1.51%
5.99: pIC50 (second compound 1 µM)
> 7.50: pIC50 (second compound 10 µM)
6.09: pIC50 (second compound 0.0316 µM)

Cc1cccc(N(C)C(=O)C2C(O)CCN2c2nc(C)cc(C(F)(F)F)c2C#N)c1 (stereo unspecified) + CN(C)c1ccc(Nc2c3ccc(NC(=O)CCN4CCCC4)cc3nc3cc(NC(=O)CCN4CCCC4)ccc23)cc1
< 5.00: pIC50 (second compound 0.0316 µM) | pIC50 (second compound 0.1 µM) | pIC50 (second compound 0.316 µM) | pIC50 (second compound 1 µM) | pIC50 (second compound 3.16 µM)
> 7.50: pIC50 (second compound 10 µM)
inactive: viability, T/C [1] 97.7% | viability, T/C [13] 92.1% | viability, T/C [2] 99.7% | viability, T/C [14] 90.6% | viability, T/C [15] 96.2% | viability, T/C [16] 123% | viability, T/C [3] 84.8% | viability, T/C [17] 92.9% | viability, T/C [4] 81.6% | viability, T/C [18] 74.5% | viability, T/C [19] 99% | viability, T/C [20] 84.8% | viability, T/C [5] 86.9% | viability, T/C [21] 94% | viability, T/C [6] 76.8% | viability, T/C [22] 90.3% | viability, T/C [23] 81.7% | viability, T/C [24] 73.1% | viability, T/C [7] 79.3% | viability, T/C [25] 95.5% | viability, T/C [8] 111% | viability, T/C [26] 93% | viability, T/C [27] 70.7% | viability, T/C [28] 86% | viability, T/C [9] 64.3% | viability, T/C [29] 65.8% | viability, T/C [10] 43.5% | viability, T/C [30] 66.4% | viability, T/C [31] 59.4% | viability, T/C [32] 44.8% | viability, T/C [11] 34.9% | viability, T/C [33] 56.7% | viability, T/C [12] 47.8% | viability, T/C [34] 34% | viability, T/C [35] 37.4% | viability, T/C [36] 20.9%
